From patent US20250235520A1, “METHODS FOR REVERSING A SUPPRESSED IMMUNE STATE TO INCREASE SURVIVAL IN A SUBJECT” (priority 2022, published 2025)

Columns and labels:
[1] = test system: breast cancer patients with tumors expressing any degree of HER2; experiment: Phase IIb trial: injection site reactions (ISRs), orthogonal mean of largest perpendicular diameters; type: in vivo, human
Procedure: Background: Delayed type hypersensitivity (DTH) skin tests in the randomized, active-controlled, single-blinded, multicenter Phase IIb trial investigating GLSI-100 (GP2+GM-CSF) administered in the adjuvant setting to node-positive and high-risk node-negative breast cancer patients with tumors expressing any degree of HER2 (immuno-histochemistry [IHC] 1-3+) (NCT00524277) were analyzed. The trial enrolled HLA-A*02 patients randomized to receive GLSI-100 versus GM-CSF alone. The trial's primary objective was to determine if treatment with GLSI-100, a HER2-derived peptide, reduces recurrence rates.
Methods: Patients were randomized and received GLSI-100 (500 micrograms (mcg) GP2 and 125 mcg GM-CSF) or control (GM-CSF) via 6 intradermal injections every 3-4 weeks for the first 6 months and 4 booster injections every 6 months. The magnitude of injection site reactions, which occurred in almost all patients, were assessed for the 10 doses administered by measuring the largest perpendicular diameters and the resulting orthogonal mean.

[2] = test system: breast cancer patients with tumors expressing HER2 (HER2 3+); experiment: Phase IIb trial (NCT00524277): disease free survival / recurrence; type: in vivo, human; details: HER2 3+ patients who completed the primary immunization series after trastuzumab; 5 years of follow-up

Row | Substance | increase of injection site reactions by adding GP2 treatment ([1]; trastuzumab treated HER2 3+ patients vs GM-CSF control, average over all 10 doses) | Kaplan-Meier estimated 5-year disease free survival (DFS) rate [2] | median orthogonal mean induration ([1]; after a single dose) | patients with injection site reactions ([1]; all treated patients) | difference in reactions, HER2 3+ control patients (Herceptin treated) smaller than HER2 1-2+ control patients ([1]; average over all 10 doses)
1 | Ile Ile Ser Ala Val Val Gly Ile Leu (IISAVVGIL) [GP2, 9 amino acid transmembrane peptide of the HER2/neu protein] | 39.2 mm | – | – | – | –
2 | GM-CSF: granulocyte macrophage colony-stimulating factor, adjuvant; control arm (called placebo) of the active-controlled trial | – | 89.4% | 7.8 mm | ~100% | 43.1 mm
